# Patent US20240238242A1, “EGCG buccal tablet and use thereof” (priority 2023, published 2024)
# Several values for one entry are separate records, joined by “and”; a condition that tells them apart may be missing. Identical values can stand only once. Like-named read-outs stand apart in the source and are kept apart here.
# What was measured:
# [1] = test system: Influenza A H1N1 virus (H1N1-PR8); format: cell-based; conditions: for CPE test (virus replication in the cell wells): 5 mM EGCG + virus, PR8, 1 minute; for inactivation efficiency against the virus: single experiment; for average inactivation efficiency against virus: three experiments
# [2] = test system: Influenza B virus (B/Lee); experiment: Inactivation efficiency against influenza B virus B/Lee strain (residual TCID50 on MDCK cells); format: cell-based; conditions: for average inactivation efficiency against virus: B/Lee virus, two experiments
# [3] = 5 mM EGCG, PR8 virus, 5 minutes
smiles,measurement,setting,value
"O=C(O[C@@H]1Cc2c(O)cc(O)cc2O[C@@H]1c1cc(O)c(O)c(O)c1)c1cc(O)c(O)c(O)c1 [EGCG, Epigallocatechin gallate]",CPE test (virus replication in the cell wells),"[1]; first experiment, dilution factor 10^4, wells 1-10",+ and −
same,CPE test (virus replication in the cell wells),"[1]; first experiment, dilution factor 10^5, wells 1-10",− and +
same,CPE test (virus replication in the cell wells),"[1]; first experiment, dilution factor 10^6, wells 1-10",−
same,CPE test (virus replication in the cell wells),"[1]; first experiment, dilution factor 10^7, wells 1-10",−
same,CPE test (virus replication in the cell wells),"[1]; first experiment, dilution factor 10^8, wells 1-10",−
same,CPE test (virus replication in the cell wells),"[1]; second experiment, dilution factor 10^4, wells 1-10",− and +
same,CPE test (virus replication in the cell wells),"[1]; second experiment, dilution factor 10^5, wells 1-10",− and +
same,CPE test (virus replication in the cell wells),"[1]; second experiment, dilution factor 10^6, wells 1-10",−
same,CPE test (virus replication in the cell wells),"[1]; second experiment, dilution factor 10^7, wells 1-10",−
same,CPE test (virus replication in the cell wells),"[1]; second experiment, dilution factor 10^8, wells 1-10",−
same,inactivation efficiency against the virus,"[1]; 5 mM EGCG, PR8 virus, 1 minute",99.50% and 99.60% and 93.69%
same,average inactivation efficiency against virus,"[1]; 5 mM EGCG, PR8 virus, 1 minute",97.60%
same,residual virus titer of EGCG+virus group (Karber method),[1]; [3],10^4 TCID50/50 μL
same,inactivation efficiency against the virus,[1]; [3],99.92% and 99.75% and 99.60%
same,average inactivation efficiency against virus,[1]; [3],99.76%
same,CPE test (virus replication in the cell wells),"[2]; 0.2 mM EGCG + B/Lee virus, 1 minute, first experiment, dilution factor 10^1, wells 1-10",+
same,CPE test (virus replication in the cell wells),"[2]; 0.2 mM EGCG + B/Lee virus, 1 minute, first experiment, dilution factor 10^2, wells 1-10",+
same,CPE test (virus replication in the cell wells),"[2]; 0.2 mM EGCG + B/Lee virus, 1 minute, first experiment, dilution factor 10^3, wells 1-10",+
same,CPE test (virus replication in the cell wells),"[2]; 0.2 mM EGCG + B/Lee virus, 1 minute, first experiment, dilution factor 10^4, wells 1-10",+
same,CPE test (virus replication in the cell wells),"[2]; 0.2 mM EGCG + B/Lee virus, 1 minute, first experiment, dilution factor 10^5, wells 1-10",− and +
same,CPE test (virus replication in the cell wells),"[2]; 0.2 mM EGCG + B/Lee virus, 1 minute, first experiment, dilution factor 10^6, wells 1-10",− and +
same,CPE test (virus replication in the cell wells),"[2]; 0.2 mM EGCG + B/Lee virus, 1 minute, first experiment, dilution factor 10^7, wells 1-10",−
same,CPE test (virus replication in the cell wells),"[2]; 0.2 mM EGCG + B/Lee virus, 1 minute, first experiment, dilution factor 10^8, wells 1-10",−
same,CPE test (virus replication in the cell wells),"[2]; 0.2 mM EGCG + B/Lee virus, 1 minute, second experiment, dilution factor 10^1, wells 1-10",+
same,CPE test (virus replication in the cell wells),"[2]; 0.2 mM EGCG + B/Lee virus, 1 minute, second experiment, dilution factor 10^2, wells 1-10",+
same,CPE test (virus replication in the cell wells),"[2]; 0.2 mM EGCG + B/Lee virus, 1 minute, second experiment, dilution factor 10^3, wells 1-10",+
same,CPE test (virus replication in the cell wells),"[2]; 0.2 mM EGCG + B/Lee virus, 1 minute, second experiment, dilution factor 10^4, wells 1-10",+
same,CPE test (virus replication in the cell wells),"[2]; 0.2 mM EGCG + B/Lee virus, 1 minute, second experiment, dilution factor 10^5, wells 1-10",+
same,CPE test (virus replication in the cell wells),"[2]; 0.2 mM EGCG + B/Lee virus, 1 minute, second experiment, dilution factor 10^6, wells 1-10",− and +
same,CPE test (virus replication in the cell wells),"[2]; 0.2 mM EGCG + B/Lee virus, 1 minute, second experiment, dilution factor 10^7, wells 1-10",−
same,CPE test (virus replication in the cell wells),"[2]; 0.2 mM EGCG + B/Lee virus, 1 minute, second experiment, dilution factor 10^8, wells 1-10",−
same,average inactivation efficiency against virus,"[2]; 0.2 mM EGCG, 1 minute",18.45%
same,CPE test (virus replication in the cell wells),"[2]; 1 mM EGCG + B/Lee virus, 1 minute, first experiment, dilution factor 10^3, wells 1-10",+
same,CPE test (virus replication in the cell wells),"[2]; 1 mM EGCG + B/Lee virus, 1 minute, first experiment, dilution factor 10^4, wells 1-10",+
same,CPE test (virus replication in the cell wells),"[2]; 1 mM EGCG + B/Lee virus, 1 minute, first experiment, dilution factor 10^5, wells 1-10",+
same,CPE test (virus replication in the cell wells),"[2]; 1 mM EGCG + B/Lee virus, 1 minute, first experiment, dilution factor 10^6, wells 1-10",−
same,CPE test (virus replication in the cell wells),"[2]; 1 mM EGCG + B/Lee virus, 1 minute, first experiment, dilution factor 10^7, wells 1-10",−
same,CPE test (virus replication in the cell wells),"[2]; 1 mM EGCG + B/Lee virus, 1 minute, first experiment, dilution factor 10^8, wells 1-10",−
same,CPE test (virus replication in the cell wells),"[2]; 1 mM EGCG + B/Lee virus, 1 minute, second experiment, dilution factor 10^3, wells 1-10",+
same,CPE test (virus replication in the cell wells),"[2]; 1 mM EGCG + B/Lee virus, 1 minute, second experiment, dilution factor 10^4, wells 1-10",+
same,CPE test (virus replication in the cell wells),"[2]; 1 mM EGCG + B/Lee virus, 1 minute, second experiment, dilution factor 10^5, wells 1-10",+
same,CPE test (virus replication in the cell wells),"[2]; 1 mM EGCG + B/Lee virus, 1 minute, second experiment, dilution factor 10^6, wells 1-10",− and +
same,CPE test (virus replication in the cell wells),"[2]; 1 mM EGCG + B/Lee virus, 1 minute, second experiment, dilution factor 10^7, wells 1-10",−
same,CPE test (virus replication in the cell wells),"[2]; 1 mM EGCG + B/Lee virus, 1 minute, second experiment, dilution factor 10^8, wells 1-10",−
same,CPE test (virus replication in the cell wells),"[2]; 1 mM EGCG + B/Lee virus, 5 minute, first experiment, dilution factor 10^2, wells 1-10",+
same,CPE test (virus replication in the cell wells),"[2]; 1 mM EGCG + B/Lee virus, 5 minute, first experiment, dilution factor 10^3, wells 1-10",+
same,CPE test (virus replication in the cell wells),"[2]; 1 mM EGCG + B/Lee virus, 5 minute, first experiment, dilution factor 10^4, wells 1-10",+
same,CPE test (virus replication in the cell wells),"[2]; 1 mM EGCG + B/Lee virus, 5 minute, first experiment, dilution factor 10^5, wells 1-10",+
same,CPE test (virus replication in the cell wells),"[2]; 1 mM EGCG + B/Lee virus, 5 minute, first experiment, dilution factor 10^6, wells 1-10",−
same,CPE test (virus replication in the cell wells),"[2]; 1 mM EGCG + B/Lee virus, 5 minute, first experiment, dilution factor 10^7, wells 1-10",−
same,CPE test (virus replication in the cell wells),"[2]; 1 mM EGCG + B/Lee virus, 5 minute, first experiment, dilution factor 10^8, wells 1-10",−
same,CPE test per cell well,"[2]; 1 mM EGCG + B/Lee virus, 5 minute, second experiment, dilution factor 10^1, wells 1-10",+
same,CPE test per cell well,"[2]; 1 mM EGCG + B/Lee virus, 5 minute, second experiment, dilution factor 10^2, wells 1-10",+
same,CPE test per cell well,"[2]; 1 mM EGCG + B/Lee virus, 5 minute, second experiment, dilution factor 10^3, wells 1-10",+
same,CPE test per cell well,"[2]; 1 mM EGCG + B/Lee virus, 5 minute, second experiment, dilution factor 10^4, wells 1-10",+
same,CPE test per cell well,"[2]; 1 mM EGCG + B/Lee virus, 5 minute, second experiment, dilution factor 10^5, wells 1-10",+ and −
same,CPE test per cell well,"[2]; 1 mM EGCG + B/Lee virus, 5 minute, second experiment, dilution factor 10^6, wells 1-10",−
same,CPE test per cell well,"[2]; 1 mM EGCG + B/Lee virus, 5 minute, second experiment, dilution factor 10^7, wells 1-10",−
same,CPE test per cell well,"[2]; 1 mM EGCG + B/Lee virus, 5 minute, second experiment, dilution factor 10^8, wells 1-10",−
same,average inactivation efficiency against virus,"[2]; 1 mM EGCG, 1 minute",28.74%
same,average inactivation efficiency against virus,"[2]; 1 mM EGCG, 5 minutes",18.45%
same,CPE test (virus replication in the cell wells),"[2]; 5 mM EGCG + B/Lee virus, 1 minute, first experiment, dilution factor 10^4, wells 1-10",+
same,CPE test (virus replication in the cell wells),"[2]; 5 mM EGCG + B/Lee virus, 1 minute, first experiment, dilution factor 10^5, wells 1-10",+
same,CPE test (virus replication in the cell wells),"[2]; 5 mM EGCG + B/Lee virus, 1 minute, first experiment, dilution factor 10^6, wells 1-10",−
same,CPE test (virus replication in the cell wells),"[2]; 5 mM EGCG + B/Lee virus, 1 minute, first experiment, dilution factor 10^7, wells 1-10",−
same,CPE test (virus replication in the cell wells),"[2]; 5 mM EGCG + B/Lee virus, 1 minute, first experiment, dilution factor 10^8, wells 1-10",−
same,CPE test (virus replication in the cell wells),"[2]; 5 mM EGCG + B/Lee virus, 1 minute, second experiment, dilution factor 10^4, wells 1-10",+
same,CPE test (virus replication in the cell wells),"[2]; 5 mM EGCG + B/Lee virus, 1 minute, second experiment, dilution factor 10^5, wells 1-10",− and +
same,CPE test (virus replication in the cell wells),"[2]; 5 mM EGCG + B/Lee virus, 1 minute, second experiment, dilution factor 10^6, wells 1-10",−
same,CPE test (virus replication in the cell wells),"[2]; 5 mM EGCG + B/Lee virus, 1 minute, second experiment, dilution factor 10^7, wells 1-10",−
same,CPE test (virus replication in the cell wells),"[2]; 5 mM EGCG + B/Lee virus, 1 minute, second experiment, dilution factor 10^8, wells 1-10",−
same,CPE test (virus replication in the cell wells),"[2]; 5 mM EGCG + B/Lee virus, 5 minute, first experiment, dilution factor 10^4, wells 1-10",+ and −
same,CPE test (virus replication in the cell wells),"[2]; 5 mM EGCG + B/Lee virus, 5 minute, first experiment, dilution factor 10^5, wells 1-10",+ and −
same,CPE test (virus replication in the cell wells),"[2]; 5 mM EGCG + B/Lee virus, 5 minute, first experiment, dilution factor 10^6, wells 1-10",− and +
same,CPE test (virus replication in the cell wells),"[2]; 5 mM EGCG + B/Lee virus, 5 minute, first experiment, dilution factor 10^7, wells 1-10",− and +
same,CPE test (virus replication in the cell wells),"[2]; 5 mM EGCG + B/Lee virus, 5 minute, first experiment, dilution factor 10^8, wells 1-10",−
same,CPE test per cell well,"[2]; 5 mM EGCG + B/Lee virus, 5 minute, second experiment, dilution factor 10^4, wells 1-10",+
same,CPE test per cell well,"[2]; 5 mM EGCG + B/Lee virus, 5 minute, second experiment, dilution factor 10^5, wells 1-10",− and +
same,CPE test per cell well,"[2]; 5 mM EGCG + B/Lee virus, 5 minute, second experiment, dilution factor 10^6, wells 1-10",−
same,CPE test per cell well,"[2]; 5 mM EGCG + B/Lee virus, 5 minute, second experiment, dilution factor 10^7, wells 1-10",−
same,CPE test per cell well,"[2]; 5 mM EGCG + B/Lee virus, 5 minute, second experiment, dilution factor 10^8, wells 1-10",−
same,average inactivation efficiency against virus,"[2]; 5 mM EGCG, 1 minute",52.43%
same,average inactivation efficiency against virus,"[2]; 5 mM EGCG, 5 minutes",36.90%
